Data on four molecules can be found in publication PMC7440923, “Measuring protein stability in the GroEL chaperonin cage reveals massive destabilization” (eLife, 2020).

Data set [1] has as its target T1, DHFRMp fused to eGFP (chimera), free in bulk solution (Moritella profunda, UniProt Q70YQ6).
T1 construct: gene dyrA; N-terminal His7-eGFP (A206K)-linker with TEV site-DHFRMp at the C-terminus; fusion uncut; E. coli BL21; not encapsulated
In words: differential scanning fluorimetry, SYPRO Orange. In kind it is binding. The following applies: 500 µM ligand, 5 µM chimera, working buffer pH 8.0; transition of the DHFRMp part. Background: Differential scanning fluorimetry follows unfolding on heating by fluorescence.

Substrate in data set [2]: Nc1nc2c(c(=O)[nH]1)N=C(CNc1ccc(C(=O)N[C@@H](CCC(=O)O)C(=O)O)cc1)CN2
In words: purified protein. In kind it is biochemical, Moritella profunda. The following applies: 350 µM NADPH, 23 °C, working buffer (20 mM Hepes pH 8.0, 100 mM KCl, 50 mM MgCl2, 50 mM Na2SO4, 10 mM NaF, 1 mM BeSO4, 1 mM DTT), free chimera in bulk solution.

The target in data set [3] is T2, GroEL (Escherichia coli, UniProt P0A6F5 1-548).
T2 construct: GroEL chaperonin of the Escherichia coli GroE system; used as 'GroEL oligomer'; Expression and purification of GroEL are not described; also called GroEL oligomer
In words: SEC; freshly assembled football complexes: acid-denatured eGFP added to GroEL and GroES oligomers in folding buffer, assembly started with Na2SO4, NaF, BeSO4 and ATP; gel-filtration in working buffer (20 mM Hepes pH 8.0, 100 mM KCl, 50 mM MgCl2, 50 mM Na2SO4, 10 mM NaF, 1 mM BeSO4, 1 mM DTT); A280 and A485, fractions by SDS-PAGE. The following applies: both partners purified.

T2 sequence (P0A6F5 whole entry): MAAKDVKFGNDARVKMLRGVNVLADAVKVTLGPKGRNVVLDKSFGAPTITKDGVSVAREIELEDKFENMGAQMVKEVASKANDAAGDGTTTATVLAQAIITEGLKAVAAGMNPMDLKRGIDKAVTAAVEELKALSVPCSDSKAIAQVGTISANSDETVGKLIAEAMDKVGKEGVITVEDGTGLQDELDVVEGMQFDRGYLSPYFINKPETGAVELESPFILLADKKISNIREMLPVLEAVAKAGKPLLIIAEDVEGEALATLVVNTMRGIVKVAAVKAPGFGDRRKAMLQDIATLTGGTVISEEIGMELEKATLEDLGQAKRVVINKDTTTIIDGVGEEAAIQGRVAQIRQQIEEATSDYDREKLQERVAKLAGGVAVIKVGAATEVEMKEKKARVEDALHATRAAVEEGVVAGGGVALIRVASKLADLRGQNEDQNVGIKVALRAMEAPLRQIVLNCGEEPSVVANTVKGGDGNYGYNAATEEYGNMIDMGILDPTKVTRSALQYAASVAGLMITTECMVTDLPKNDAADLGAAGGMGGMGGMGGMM

`NC(=O)C1=CN([C@@H]2O[C@H](COP(=O)(O)OP(=O)(O)OC[C@H]3O[C@@H](n4cnc5c(N)ncnc54)[C@H](OP(=O)(O)O)[C@@H]3O)[C@@H](O)[C@H]2O)C=CC1` [NADPH]: the “increase in melting temperature (dTm)” value in data set [1] was ~ 8 °C.

In the case of `Nc1nc2c(c(=O)[nH]1)N=C(CNc1ccc(C(=O)N[C@@H](CCC(=O)O)C(=O)O)cc1)CN2` [dihydrofolate], in data set [1], the “increase in melting temperature (dTm)” value is ~ 31 °C.

B1: DHFRMp fused to eGFP (chimera), free in bulk solution (Moritella profunda) (protein)
chain: MIVSMIAALANNRVIGLDNKMPWHLPAELQLFKRATLGKPIVMGRNTFESIGRPLPGRLNIVLSRQTDYQPEGVTVVATLEDAVVAAGDVEELMIIGGATIYNQCLAAADRLYLTHIELTTEGDTWFPDYEQYNWQEIEHESYAADDKNPHNYRFSLLERVK
notes: N-terminal His7-eGFP (A206K)-linker with TEV site-DHFRMp at the C-terminus; fusion uncut; E. coli BL21; not encapsulated
For B1, in data set [2], the Km was 33 (±2) µM.

B2: GroES (natural protein, Escherichia coli, UniProt P0A6F9 1-97, looked up)
chain: MNIRPLHDRVIVKRKEVETKSAGGIVLTGSAAAKSTRGEVLAVGNGRILENGEVKPLDVKVGDIVIFNDGYGVKSEKIDNEEVLIMSESDILAIVEA
notes: GroES, co-factor of GroEL in the Escherichia coli GroE system; used as 'GroES oligomer'; Expression and purification of GroES are not described; also called GroES oligomer
Take B2: the binding result in data set [3] is listed as “binds”.
